For one assay, the system named is KM12 cells. In words: Cell viability assay (CellTiter-Glo) in KM12 cells. The note with it: Homo sapiens, 72 h; Table 2; KM12 cell viability, CellTiter-Glo, 3 days; read-out: IC50. The format is cell-based.
In the case of `O=C1CCC(N2C(=O)c3cccc(NCCC(=O)N4CCN(c5ccc(C(=O)Nc6n[nH]c7ccc(Cc8cc(F)cc(F)c8)cc67)c(NC6CCOCC6)c5)CC4)c3C2=O)C(=O)N1` (stereo not drawn) [CPD-051, N-(5-(3,5-difluorobenzyl)-1H-indazol-3-yl)-4-(4-(3-((2-(2,6-dioxopiperidin-3-yl)-1,3-dioxoisoindolin-4-yl)amino)propanoyl)piperazin-1-yl)-2-((tetrahydro-2H-pyran-4-yl)amino)benzamide], the IC50 turned out to be 11 nM.

The assay is the same for the next values; noted with them: Homo sapiens, 72 h; Table 3; KM12 cell viability, CellTiter-Glo, 3 days; read-out: IC50.
With `O=C1CCC(N2C(=O)c3ccc(NCCOCCN4CCN(c5cccc(-c6cnc7ccc(N8CCC[C@@H]8c8cccc(F)c8)nn67)n5)CC4)cc3C2=O)C(=O)N1` (stereo partly drawn) [TR-176, 2-(2,6-Dioxopiperidin-3-yl)-5-((2-(2-(4-(6-(6-((R)-2-(3-fluorophenyl)pyrrolidin-1-yl)imidazo[1,2-b]pyridazin-3-yl)pyridin-2-yl)piperazin-1-yl)ethoxy)ethyl)amino)isoindoline-1,3-dione], the IC50 worked out at 18 nM.

For the molecule `O=C1CCC(N2C(=O)c3ccc(NCCOCCOCCOCCOCCC(=O)N4CCN(c5ccc(C(=O)Nc6n[nH]c7ccc(Cc8cc(F)cc(F)c8)cc67)c(NC6CCOCC6)c5)CC4)cc3C2=O)C(=O)N1` (stereo not drawn) [TR-140, N-(5-(3,5-Difluorobenzyl)-1H-indazol-3-yl)-4-(4-(1-((2-(2,6-dioxopiperidin-3-yl)-1,3-dioxoisoindolin-5-yl)amino)-3,6,9,12-tetraoxapentadecan-15-oyl)piperazin-1-yl)-2-((tetrahydro-2H-pyran-4-yl)amino)benzamide], the IC50 was 1.6 nM.

Consider `O=C1CCC(N2C(=O)c3ccc(NCCCOCCN4CCN(c5cccc(-c6cnc7ccc(N8CCC[C@@H]8c8cccc(F)c8)nn67)n5)CC4)cc3C2=O)C(=O)N1` (stereo partly drawn) [TR-199], for which the IC50 came out at 39.8 nM.

In the case of `O=C1CCC(N2C(=O)c3ccc(NCCNC4CN(c5cccc(-c6cnc7ccc(N8CCC[C@@H]8c8cccc(F)c8)nn67)n5)C4)cc3C2=O)C(=O)N1` (stereo partly drawn) [TR-192, 2-(2,6-Dioxopiperidin-3-yl)-5-((2-((1-(6-(6-((R)-2-(3-fluorophenyl)pyrrolidin-1-yl)imidazo[1,2-b]pyridazin-3-yl)pyridin-2-yl)azetidin-3-yl)amino)ethyl)amino)isoindoline-1,3-dione], the IC50 came to 103 nM.

Turning to `O=C(CN1CCN(c2cccc(-c3cnc4ccc(N5CCC[C@@H]5c5cccc(F)c5)nn34)n2)CC1)NCCCCCNc1cccc2c1C(=O)N(C1CCC(=O)NC1=O)C2=O` (stereo partly drawn) [TR-103, N-(5-((2-(2,6-dioxopiperidin-3-yl)-1,3-dioxoisoindolin-4-yl)amino)pentyl)-2-(4-(6-(6-((R)-2-(3-fluorophenyl)pyrrolidin-1-yl)imidazo[1,2-b]pyridazin-3-yl)pyridin-2-yl)piperazin-1-yl)acetamide], the IC50 came out at 13.5 nM.

As for `O=C1CCC(N2Cc3cc(OCCN4CCN(c5cccc(-c6cnc7ccc(N8CCC[C@@H]8c8cccc(F)c8)nn67)n5)CC4)ccc3C2=O)C(=O)N1` (stereo partly drawn) [TR-200, 3-(5-(2-(4-(6-(6-((R)-2-(3-fluorophenyl)pyrrolidin-1-yl)imidazo[1,2-b]pyridazin-3-yl)pyridin-2-yl)piperazin-1-yl)ethoxy)-1-oxoisoindolin-2-yl)piperidine-2,6-dione], the IC50 came to 101 nM.

Consider `O=C(CN1CCN(c2cccc(-c3cnc4ccc(N5CCC[C@@H]5c5cccc(F)c5)nn34)n2)CC1)NCCCCCCCCNc1ccc2c(c1)C(=O)N(C1CCC(=O)NC1=O)C2=O` (stereo partly drawn) [TR-133, N-(8-((2-(2,6-dioxopiperidin-3-yl)-1,3-dioxoisoindolin-5-yl)amino)octyl)-2-(4-(6-(6-((R)-2-(3-fluorophenyl)pyrrolidin-1-yl)imidazo[1,2-b]pyridazin-3-yl)pyridin-2-yl)piperazin-1-yl)acetamide], for which the 50% inhibitory concentration (IC50) came out at 22.8 nM.

For `O=C(CN1CCN(c2ccc(C(=O)Nc3n[nH]c4ccc(Cc5cc(F)cc(F)c5)cc34)c(NC3CCOCC3)c2)CC1)NCCOCCOCCNc1ccc2c(c1)C(=O)N(C1CCC(=O)NC1=O)C2=O` (stereo not drawn) [TR-162, N-(5-(3,5-Difluorobenzyl)-1H-indazol-3-yl)-4-(4-(2-((2-(2-(2-((2-(2,6-dioxopiperidin-3-yl)-1,3-dioxoisoindolin-5-yl)amino)ethoxy)ethoxy)ethyl)amino)-2-oxoethyl)piperazin-1-yl)-2-((tetrahydro-2H-pyran-4-yl)amino)benzamide], the IC50 was determined as 4.1 nM.

With `O=C1CCC(N2C(=O)c3ccc(N4CCC(N5CCN(c6cccc(-c7cnc8ccc(N9CCC[C@@H]9c9cccc(F)c9)nn78)n6)CC5)CC4)cc3C2=O)C(=O)N1` (stereo partly drawn) [TR-182, 2-(2,6-Dioxopiperidin-3-yl)-5-(4-(4-(6-(6-((R)-2-(3-fluorophenyl)pyrrolidin-1-yl)imidazo[1,2-b]pyridazin-3-yl)pyridin-2-yl)piperazin-1-yl)piperidin-1-yl)isoindoline-1,3-dione], the IC50 was 16 nM.

Turning to `O=C(CN1CCN(c2cccc(-c3cnc4ccc(N5CCC[C@@H]5c5cccc(F)c5)nn34)n2)CC1)NCCOCCOCCOCCNc1ccc2c(c1)C(=O)N(C1CCC(=O)NC1=O)C2=O` (stereo partly drawn) [TR-129, N-(2-(2-(2-(2-((2-(2,6-dioxopiperidin-3-yl)-1,3-dioxoisoindolin-5-yl)amino)ethoxy)ethoxy)ethoxy)ethyl)-2-(4-(6-(6-((R)-2-(3-fluorophenyl)pyrrolidin-1-yl)imidazo[1,2-b]pyridazin-3-yl)pyridin-2-yl)piperazin-1-yl)acetamide], the 50% inhibitory concentration (IC50) amounted to 4.4 nM.

The same assay, now with this note: Homo sapiens, 72 h; Table 4; KM12 cell viability, CellTiter-Glo, 3 days; read-out: IC50.
Regarding `O=C1CCC(N2Cc3cc(NC4CCN(c5cccc(-c6cnc7ccc(N8CCC[C@@H]8c8cccc(F)c8)nn67)n5)CC4)ccc3C2=O)C(=O)N1` (stereo partly drawn) [TR-212, 3-(5-((1-(6-(6-((R)-2-(3-fluorophenyl)pyrrolidin-1-yl)imidazo[1,2-b]pyridazin-3-yl)pyridin-2-yl)piperidin-4-yl)amino)-1-oxoisoindolin-2-yl)piperidine-2,6-dione], the IC50 worked out at 15.8 nM.

With `O=C1CCC(N2Cc3cc(C#CC4CCN(c5cccc(-c6cnc7ccc(N8CCC[C@@H]8c8cccc(F)c8)nn67)n5)CC4)ccc3C2=O)C(=O)N1` (stereo partly drawn) [TR-208, 3-(5-((1-(6-(6-((R)-2-(3-fluorophenyl)pyrrolidin-1-yl)imidazo [1,2-b]pyridazin-3-yl)pyridin-2-yl)piperidin-4-yl)ethynyl)-1-oxoisoindolin-2-yl)piperidine-2,6-dione], the IC50 came out at 7 nM.

For `O=C1CCC(N2Cc3cc(NCC4CCN(c5cccc(-c6cnc7ccc(N8CCC[C@@H]8c8cccc(F)c8)nn67)n5)CC4)ccc3C2=O)C(=O)N1` (stereo partly drawn) [TR-218, 3-(5-(((1-(6-(6-((R)-2-(3-Fluorophenyl)pyrrolidin-1-yl)imidazo[1,2-b]pyridazin-3-yl)pyridin-2-yl)piperidin-4-yl)methyl)amino)-1-oxoisoindolin-2-yl)piperidine-2,6-dione], the IC50 came out at 15.3 nM.

With `O=C1CCC(N2Cc3cc(C#CC4CN(c5cccc(-c6cnc7ccc(N8CCC[C@@H]8c8cccc(F)c8)nn67)n5)C4)ccc3C2=O)C(=O)N1` (stereo partly drawn) [TR-219, 3-(5-((1-(6-(6-((R)-2-(3-Fluorophenyl)pyrrolidin-1-yl)imidazo[1,2-b]pyridazin-3-yl)pyridin-2-yl)azetidin-3-yl)ethynyl)-1-oxoisoindolin-2-yl)piperidine-2,6-dione], the IC50 was 44.9 nM.

By IC50 is commonly meant the concentration that gives 50% inhibition.

The record behind these values is US12065442B2, “Tropomyosin receptor kinase (TRK) degradation compounds and methods of use” (Cullgen (Shanghai), Inc., priority 2018, dated 2024).
